IC50 data for 6 compounds are collected here from US11130756B2, “[1,2,4]Triazolo[4,3-A]pyridinyl substituted indole compounds” (BRISTOL-MYERS SQUIBB COMPANY, priority 2017, dated 2021).

Holding throughout (assay type): cell-based
Experiment [1] concerns the target T1, human TLR9 (Homo sapiens, UniProt Q9NR96).
T1 construct: host or cells: HEK-Blue cells
T1 sequence (Q9NR96 26-1032): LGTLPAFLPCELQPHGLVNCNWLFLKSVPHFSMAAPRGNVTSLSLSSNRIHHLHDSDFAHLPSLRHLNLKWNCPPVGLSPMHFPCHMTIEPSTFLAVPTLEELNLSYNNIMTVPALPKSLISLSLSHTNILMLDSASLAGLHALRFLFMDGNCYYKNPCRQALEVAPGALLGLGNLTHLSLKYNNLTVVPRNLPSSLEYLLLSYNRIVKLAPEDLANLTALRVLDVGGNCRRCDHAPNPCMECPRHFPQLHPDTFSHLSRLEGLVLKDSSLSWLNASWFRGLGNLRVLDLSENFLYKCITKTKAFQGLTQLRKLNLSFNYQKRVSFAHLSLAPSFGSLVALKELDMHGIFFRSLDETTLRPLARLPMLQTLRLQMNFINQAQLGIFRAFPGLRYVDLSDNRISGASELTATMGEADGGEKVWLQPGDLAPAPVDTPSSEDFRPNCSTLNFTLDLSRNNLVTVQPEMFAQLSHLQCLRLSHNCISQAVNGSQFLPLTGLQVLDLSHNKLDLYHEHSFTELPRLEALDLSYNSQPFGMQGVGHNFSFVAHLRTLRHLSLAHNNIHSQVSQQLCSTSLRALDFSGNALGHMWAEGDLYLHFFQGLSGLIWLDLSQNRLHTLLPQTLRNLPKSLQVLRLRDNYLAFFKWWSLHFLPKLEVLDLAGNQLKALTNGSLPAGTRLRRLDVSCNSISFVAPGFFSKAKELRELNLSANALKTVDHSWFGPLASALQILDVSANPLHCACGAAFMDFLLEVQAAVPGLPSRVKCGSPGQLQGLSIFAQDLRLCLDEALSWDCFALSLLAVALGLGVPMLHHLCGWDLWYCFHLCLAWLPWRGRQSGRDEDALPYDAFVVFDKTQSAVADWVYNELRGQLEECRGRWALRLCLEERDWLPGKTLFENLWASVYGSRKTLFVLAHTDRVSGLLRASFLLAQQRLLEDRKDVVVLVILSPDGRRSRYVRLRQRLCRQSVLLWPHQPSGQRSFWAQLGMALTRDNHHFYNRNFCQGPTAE
Kind of experiment: TLR9 inhibition reporter assay (HEK-Blue, SEAP). The conditions noted are these: HEK-Blue cells overexpressing human TLR9, ODN2006 5 nM, 22 hour incubation. The gist of the method:
(§1)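 Screening used HEK-Blue cells overexpressing one human TLR (7, 8 or 9) and an IFN-β minimal promoter–NF-κB/AP-1 SEAP construct. Stimulation lasted 22 h at 37 °C with receptor-specific agonist: gardiquimod, R848 or ODN2006 at 7.5 μM, 15.9 μM and 5 nM.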
(A reporter such as luciferase makes a cellular process visible.)

For experiment [2], the target named is T2, human TLR7 (Homo sapiens, UniProt Q9NYK1).
T2 construct: host or cells: HEK-Blue cells
T2 sequence (Q9NYK1 27-1049): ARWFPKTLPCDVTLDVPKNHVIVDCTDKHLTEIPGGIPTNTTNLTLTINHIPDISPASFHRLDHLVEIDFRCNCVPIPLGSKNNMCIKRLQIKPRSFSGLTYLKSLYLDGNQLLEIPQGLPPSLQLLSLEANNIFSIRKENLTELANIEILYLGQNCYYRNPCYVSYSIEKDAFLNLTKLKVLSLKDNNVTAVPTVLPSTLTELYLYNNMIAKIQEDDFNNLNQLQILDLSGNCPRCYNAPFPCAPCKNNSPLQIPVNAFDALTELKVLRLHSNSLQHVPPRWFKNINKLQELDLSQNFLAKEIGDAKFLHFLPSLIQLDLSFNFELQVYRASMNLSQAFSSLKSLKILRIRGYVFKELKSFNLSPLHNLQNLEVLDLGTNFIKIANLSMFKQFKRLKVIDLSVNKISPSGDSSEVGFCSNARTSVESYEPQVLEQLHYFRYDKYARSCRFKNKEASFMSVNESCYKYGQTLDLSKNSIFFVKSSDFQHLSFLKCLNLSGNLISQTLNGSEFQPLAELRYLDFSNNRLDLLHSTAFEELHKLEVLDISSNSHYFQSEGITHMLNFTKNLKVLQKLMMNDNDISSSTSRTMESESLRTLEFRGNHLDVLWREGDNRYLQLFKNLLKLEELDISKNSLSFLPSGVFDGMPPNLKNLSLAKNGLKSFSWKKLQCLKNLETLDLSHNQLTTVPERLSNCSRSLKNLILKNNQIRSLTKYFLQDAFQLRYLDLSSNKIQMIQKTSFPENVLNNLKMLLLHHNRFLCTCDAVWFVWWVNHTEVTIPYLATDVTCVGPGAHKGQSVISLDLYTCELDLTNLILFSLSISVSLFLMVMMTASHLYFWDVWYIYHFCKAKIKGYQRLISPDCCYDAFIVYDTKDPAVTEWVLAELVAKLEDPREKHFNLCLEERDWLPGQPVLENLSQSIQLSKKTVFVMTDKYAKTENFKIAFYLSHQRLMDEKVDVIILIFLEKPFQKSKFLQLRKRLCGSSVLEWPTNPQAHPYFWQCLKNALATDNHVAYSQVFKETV
Description: TLR7 inhibition reporter assay (HEK-Blue, SEAP). The conditions noted are these: HEK-Blue cells overexpressing human TLR7, gardiquimod 7.5 μM, 22 hour incubation. The gist of the method: as §1

Experiment [3] has as its target T3, human TLR8 (Homo sapiens, UniProt Q9NR97).
T3 construct: host or cells: HEK-Blue cells
T3 sequence (Q9NR97 27-1041): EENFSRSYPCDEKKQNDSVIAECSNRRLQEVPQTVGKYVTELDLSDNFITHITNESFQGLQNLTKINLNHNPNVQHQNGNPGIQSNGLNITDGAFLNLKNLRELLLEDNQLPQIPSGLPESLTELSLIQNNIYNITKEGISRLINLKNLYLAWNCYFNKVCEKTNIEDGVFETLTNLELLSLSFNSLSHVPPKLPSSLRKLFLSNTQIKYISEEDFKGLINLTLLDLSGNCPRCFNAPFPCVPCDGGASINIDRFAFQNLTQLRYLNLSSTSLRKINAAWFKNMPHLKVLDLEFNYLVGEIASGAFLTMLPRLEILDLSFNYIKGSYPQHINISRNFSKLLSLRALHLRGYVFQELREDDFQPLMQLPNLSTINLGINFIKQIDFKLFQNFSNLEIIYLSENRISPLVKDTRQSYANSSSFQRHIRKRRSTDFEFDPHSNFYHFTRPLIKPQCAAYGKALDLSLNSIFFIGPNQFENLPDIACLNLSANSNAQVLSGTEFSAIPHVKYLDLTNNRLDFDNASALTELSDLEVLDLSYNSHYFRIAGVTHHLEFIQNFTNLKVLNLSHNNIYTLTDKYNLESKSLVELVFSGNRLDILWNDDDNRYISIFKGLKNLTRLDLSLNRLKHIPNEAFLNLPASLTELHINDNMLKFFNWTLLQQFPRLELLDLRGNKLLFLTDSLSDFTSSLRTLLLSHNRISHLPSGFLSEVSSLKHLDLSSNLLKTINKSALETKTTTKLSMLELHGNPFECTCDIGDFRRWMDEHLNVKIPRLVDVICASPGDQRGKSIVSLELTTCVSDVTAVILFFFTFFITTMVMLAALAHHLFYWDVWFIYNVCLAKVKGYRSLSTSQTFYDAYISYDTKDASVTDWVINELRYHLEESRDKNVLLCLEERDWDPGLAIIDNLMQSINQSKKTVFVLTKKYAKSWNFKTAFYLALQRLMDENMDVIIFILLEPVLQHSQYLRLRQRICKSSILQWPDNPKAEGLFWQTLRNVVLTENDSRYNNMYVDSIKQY
Kind of experiment: TLR8 inhibition reporter assay (HEK-Blue, SEAP). The note with it: HEK-Blue cells overexpressing human TLR8, R848 15.9 μM, 22 hour incubation. The gist of the method: as §1

With `CC(C)c1c(-c2ccc3nncn3c2)[nH]c2ccc(C3CCN(C(=O)CN(C)C)CC3)cc12` [Example 105, 1-(4-(2-([1,2,4]triazolo[4,3-a]pyridin-6-yl)-3-isopropyl-1H-indol-5-yl)piperidin-1-yl)-2-(dimethylamino)ethan-1-one], the IC50 – broadly, the point on the concentration scale where inhibition reaches its midpoint – amounted to 188 nM in experiment [1], 5.9 nM in experiment [2] and 134 nM in experiment [3].
In the same order, the values of `Cc1nnc2ccc(-c3[nH]c4ccc(C5CCN(C(=O)CN(C)C)CC5)cc4c3C(C)C)cn12` [Example 106, 2-(dimethylamino)-1-(4-(3-isopropyl-2-(3-methyl-[1,2,4]triazolo[4,3-a]pyridin-6-yl)-1H-indol-5-yl)piperidin-1-yl)ethan-1-one] are 382 nM, 43 nM and 39.1 nM.
In the same order, the values of `Cc1cc2nncn2cc1-c1[nH]c2ccc(C3CCN(C(=O)CN(C)C)CC3)cc2c1C(C)C` [Example 107, 2-(dimethylamino)-1-(4-(3-isopropyl-2-(7-methyl-[1,2,4]triazolo[4,3-a]pyridin-6-yl)-1H-indol-5-yl)piperidin-1-yl)ethan-1-one] are 918 nM, 40.7 nM and 591 nM.
In the same order, the values of `Cc1c(-c2[nH]c3ccc(C4CCN(C(=O)CN(C)C)CC4)cc3c2C(C)C)ccc2nncn12` [Example 108, 2-(dimethylamino)-1-(4-(3-isopropyl-2-(5-methyl-[1,2,4]triazolo[4,3-a]pyridin-6-yl)-1H-indol-5-yl)piperidin-1-yl)ethan-1-one] are 216 nM, 78.7 nM and 30.4 nM.
For `Cc1c(-c2[nH]c3ccc(C4CC(C)N(CC(=O)N(C)C)C(C)C4)cc3c2C(C)C)cn2cnnc2c1C` (stereo not drawn) [Example 112, 2-(4-(2-(7,8-dimethyl-[1,2,4]triazolo[4,3-a]pyridin-6-yl)-3-isopropyl-1H-indol-5-yl)-2,6-dimethylpiperidin-1-yl)-N,N-dimethylacetamide], the results for the IC50 in experiment [1], in experiment [2] and in experiment [3] were 7420 nM, 20.6 nM and 121 nM, respectively.
In the same order, the values of `Cc1c(-c2[nH]c3ccc(C4CC(C)N(C5COC5)C(C)C4)cc3c2C(C)C)cn2cnnc2c1C` (stereo not drawn) [Example 115, 6-(5-(2,6-dimethyl-1-(oxetan-3-yl)piperidin-4-yl)-3-isopropyl-1H-indol-2-yl)-7,8-dimethyl-[1,2,4]triazolo[4,3-a]pyridine] are 14600 nM, 5.6 nM and 29.7 nM.
